Results taken from patent US20130095505A1, “DETECTION OF LIPID OXIDISING ABZYMES IN SAMPLES” (priority 2005, published 2013).
“Also recorded” adds a separate entry of the source. Read-outs that look alike come from different tables or passages of the source.

Legend:
[1] = system: anti-Chlamydia abzymes; assay type: biochemical, human
Protocol: (§1) For chemical inactivation, a diluent solution was divided into two portions. In one portion, an abzyme inhibitor was added.
(§2) The serum sample was split in two aliquots and one aliquot was diluted by solution containing the abzyme inhibitor, the second aliquot was diluted by the control solution. The aliquots were then tested in the same fashion.
ELISA assays were performed using Medac materials and reagents, which were used in accordance with the manufacturers instructions.
Briefly, serum samples from patients were treated as described above. 50 μl of sample diluent was pipetted into microtitre well Al as blank, and 50 μl of the negative control, Positive Control and the diluted patients' samples were pipetted into other microtitre wells. The microplate wells were incubated for 60 min (±5 min) at 37° C. (±1° C.) in a humid chamber and then washed three times with 200 μl wash buffer per well. 50 μl of Conjugate was then added to each well and the microplate wells incubated again for 60 min (±5 min) at 37° C. (±1° C.) in a humid chamber and then washed. 50 μl of TME-Substrate, was added to each well and the microplate wells incubated for 30 min (±2 min) at 37° C. (±1° C.) in a humid chamber. The reaction was stopped by adding 100 μl of Stop Solution, to each well.
Photometric reading was performed at 450 nm (ref. 620-650 nm) within 15 min after adding the Stop Solution.
To calculate the results, the OD value of the blank (well Al) was subtracted from all other OD values. […] Cut-off=mean OD value of the Negative Control+0.380. Grey zone=Cut-off±10%
If there was a difference between 10 and 15% (or an increase in one titer in MIF) of the signal between treated and non-treated samples the conclusion was that the activity of the abzymes was unclear, or in the “grey” zone.

[2] = system: anti-Chlamydia abzymes; assay type: biochemical, human; remark: listed apart in the source
Protocol: as §1, §2
Lipid peroxidation was assessed as a level of MDA concentration, which was measured by spectrophotometric methods [Draper, H. H. et al Free Radio. Biol. Med. (1993) 15, 353]. Briefly, the level of abzymes in a sample was determined as follows: Samples of sera were diluted 1:1 by 0.05M acetate buffer pH 4.0 to make the final pH of these samples between 5.6-5.8. 994 μl of the diluted serum was mixed with 10 μl of the commercial live ovine Chlamydia vaccine (Intervet). Samples were incubated overnight (12-16 hours) at 37° C. 250 μl of 40% trichloroacetic acid and 250 μl of 1 mM 2-thiobarbituric acid was added to each sample. All samples were placed in a water bath and boiled for 30 minutes. Samples were cooled down and centrifuged at 3,000 g for 10 minutes. The supernatants were collected and their absorption measured at λ525 nm to determine the concentration of malondialdehydes (MDA), which are products of lipid peroxidation.

[3] = summary in text, tested by ELISA and the lipid oxidation assay
[4] = serum with live ovine Chlamydia vaccine, pH 5.6-5.8, overnight 37° C.
[5] = serum diluted with inhibitor solution vs control solution

Molecule	Inhibition of abzymes ability to cause: Serum lipid peroxidation, in MDA assay [2, 4]	Inhibition of abzymes ability to cause: Damage of Chlamydia pneumoniae antigen, in ELISA [1, 5]	Inhibition of abzymes ability to cause: Serum lipid peroxidation, in MDA assay ([2]; pH 5.6)	Inhibition of abzymes ability to cause: Damage of Chlamydia pneumoniae antigen, in ELISA [1]	also measured
CC[C@H]1OC(=O)[C@H](C)[C@@H](O[C@H]2C[C@@](C)(OC)[C@@H](O)[C@H](C)O2)[C@H](C)[C@@H](O[C@@H]2O[C@H](C)C[C@H](N(C)C)[C@H]2O)[C@](C)(O)C[C@@H](C)CN(C)[C@H](C)[C@@H](O)[C@]1(C)O [azithromycin]	–	–	–	–	Inhibition of abzyme activity (statement in text) [1, 3]: abzyme inhibitors
CC[C@H]1OC(=O)[C@H](C)C(=O)[C@H](C)[C@@H](O[C@@H]2O[C@H](C)C[C@H](N(C)C)[C@H]2O)[C@](C)(OC)C[C@@H](C)C(=O)[C@H](C)[C@H]2N(CCCCn3cnc(-c4cccnc4)c3)C(=O)O[C@]12C [Telithromycin, Ketek, Telithromycin]	Positive	Positive	–	–	Inhibition of abzyme activity (statement in text) ([1]; summary in text, tested by ELISA and the lipid oxidation assay, listed as telithromycin): abzyme inhibitors; Inhibition of abzyme activity (statement in text) ([1]; summary in text, tested by ELISA and the lipid oxidation assay, listed as telithromycin ketek): inhibit abzyme activity; Inhibition of abzyme activity (statement in text) ([1]; summary in text, tested by ELISA and the lipid oxidation assay, listed as telithromycin-ketek): abzyme inhibitors
O=C1O[C@H]([C@@H](O)CO)C(O)=C1O [Ascorbic acid]	Positive	Positive	–	–	Inhibition of abzyme activity (statement in text) [1, 3]: inhibit abzyme activity; Inhibition of abzyme activity (statement in text) ([1]; summary in text, tested by ELISA and the lipid oxidation assay, listed as ascorbic acid): abzyme inhibitors
CC1=C(/C=C/C(C)=C/C=C/C(C)=C/C=C/C=C(C)/C=C/C=C(C)/C=C/C2=C(C)CCCC2(C)C)C(C)(C)CCC1 [β-Carotene]	–	–	Negative	Negative	–
O=C(O)CN(CCOCCOCCN(CC(=O)O)CC(=O)O)CC(=O)O [EGTA]	–	Positive	–	–	Inhibition of abzyme activity (statement in text) [1, 3]: inhibit abzyme activity
CC(=O)Oc1ccccc1C(=O)O [Acetyl salicylic acid]	Positive	Positive	–	–	Inhibition of abzyme activity (statement in text) ([1]; tested by ELISA and the lipid oxidation assay): inhibit abzyme activity; also recorded: abzyme inhibitors
OC[C@@H](O)[C@@H](O)[C@H](O)[C@H](O)CO [D-Mannitol]	Negative	Negative	–	–	–
O=C(O)CN(CCN(CC(=O)O)CC(=O)O)CC(=O)O [EDTA]	–	–	Positive	Positive	Inhibition of abzyme activity (statement in text) [1]: inhibit abzyme activity
Haemoglobin	–	–	Positive	Positive	Inhibition of abzyme activity (statement in text) [1]: inhibit abzyme activity; also recorded: abzyme inhibitors
(+) Catechin gallate	Positive	Positive	–	–	Inhibition of abzyme activity (statement in text) ([1]; summary in text, tested by ELISA and the lipid oxidation assay, listed as (+) catechin gallate): abzyme inhibitors; Inhibition of abzyme activity (statement in text) ([1]; summary in text, tested by ELISA and the lipid oxidation assay, listed as catechin gallate): inhibit abzyme activity; also recorded: abzyme inhibitors
CC(C)=CCC/C(C)=C/C=C/C(C)=C/C=C/C(C)=C/C=C/C=C(C)/C=C/C=C(C)/C=C/C=C(\C)CCC=C(C)C [Lycopene]	Negative	Negative	–	–	–
Cc1c(O)cc2c(c1C)O[C@](C)(CCC[C@H](C)CCC[C@H](C)CCCC(C)C)CC2 [(+) y-Tocopherol]	–	–	Negative	Negative	–
C[S+](C)[O-] [DMSO]	Positive	Positive	–	–	Inhibition of abzyme activity (statement in text) [1, 3]: inhibit abzyme activity; also recorded: abzyme inhibitors; Inhibition of abzyme activity (statement in text) ([1]; tested by ELISA and the lipid oxidation assay, listed as DMS): abzyme inhibitors
Cc1c(C)c2c(c(C)c1O)CC[C@@](C)(CCC[C@H](C)CCC[C@H](C)CCCC(C)C)O2 [(+) α-Tocopherol]	Negative	Negative	–	–	–
O=C(O)c1ccccc1 [Benzoic acid]	–	–	Negative	Negative	–
